Broadly, the IC50 is the concentration needed to halve the response being measured.

Some results are limits rather than exact numbers.

From US8288377B2, “Inhibitors of the interaction between MDM2 and p53” (Janssen Pharmaceutica N.V., priority 2007, dated 2012) come the findings set out here.

For assay [1], the system named is A2780 ovarian cancer cells. Description: Proliferation assay (Alamar Blue). The format is cell-based. To be noted: Homo sapiens, 96 h, 4-day incubation, read-out: pIC50 (negative log value of the IC50-value) (converted). The procedure:
Cellular activity of the compounds of formula (I) was determined on A2780 tumour cells using a colorimetric assay for cell toxicity or survival (see example C.2).
The human A2780 ovarian cancer cells were a kind gift from Dr. T. C. Hamilton (Fox Chase Cancer Centre, Pennsylvania, U.S.A.). The cells were cultured in RPMI 1640 medium supplemented with 2 mM L-Glutamine, 50 μg/ml gentamicin and 10% fetal calf serum.
Resazurin was purchased from Aldrich (Prod. No. 199303). Potassium ferrocyanide, potassium ferricyanide, KH2PO4 and K2HPO4 were purchased from Sigma (Prod. Nos. P9387, P8131, P5655 and P8281, respectively).
Potassium Phosphate Buffer 0.1 M (PPB) was made as follows: 2.72 gram KH2PO4 and 13.86 gram K2HPO4 were dissolved in 500 ml milli-Q H2O, the pH was adjusted to pH 7.4 and the volume was brought to 1 liter with milli-Q H2O; the buffer was filter sterilised and stored at room temperature. Resazurin stock solution (PPB-A) was prepared fresh by dissolving 45 mg resazurin in 15 ml PBS. 30 mM potassium ferricyanide (PPB-B) was prepared by dissolving 0.987 gram potassium ferricyanide in 100 ml PPB. 30 mM potassium ferrocyanide (PPB-C) was prepared by dissolving 1.266 gram potassium ferrocyanide in 100 ml PPB.
Mixture of PPB-A, PPB-B and PPB-C was prepared by mixing equal volumes of the respective solutions. Resazurin work solution (herein termed “Alamar Blue” solution) was prepared by diluting said mixture 20× (vol/vol) in PPB and filter sterilising; the Alamar Blue solution could be kept at 4° C. for a maximum of 2 weeks.
For experiments in 384 wells plates the cells were seeded at a density of 5×10^3 cells/ml in Falcon 384-well culture plates (Life Technologies, Merelbeke, Belgium), black with clear bottom, in 45 μl culture medium. Cells were allowed to adhere to plastic for 24 hr. The tested compound was pre-diluted (1/50 in culture medium) and 5 μl pre-diluted compound was added to the wells. Following 4-day incubation, 10 μl of the Alamar Blue solution was added to each well and the cells were further incubated for 5 hrs (A2780) at 37° C. The fluorescence intensity was measured for each well with a Fluorescence plate reader (Fluorskan, Labsystems, 540 nm excitation and 590 nm emission)
The antiproliferative activity was calculated as percentage of remaining viable cells in treated versus control (untreated cells) conditions. Within an experiment, the result for each experimental condition is the mean of 3 replicate wells. When appropriate, the experiments were repeated to establish full concentration-response curves. When appropriate, IC50-values (concentration of the drug, needed to reduce cell growth to 50% of the control) were computed using probit analysis for graded data (Finney, D. J., Probit Analyses, 2nd Ed. Chapter 10, Graded Responses, Cambridge University Press, Cambridge 1962). Herein the effects of test compounds are expressed as pIC50 (the negative log value of the IC50-value) (see Table 4).

Assay [2] concerns p53 in A2780 cells. Description: p53 ELISA (preservation of p53 in A2780 cells). The format is cell-based. To be noted: Homo sapiens, treated with compound for 16 hours, read-out: p53-elisa LAD (lowest dose giving at least 140% of the value for p53 present in the control). The procedure: The capacity of the compounds to preserve p53 in A2780 cells was measured with the p53 enzyme linked immunosorbent assay (ELISA). The p53 assay is a “sandwich” enzyme immunoassay employing two polyclonal antibodies. A polyclonal antibody, specific for the p53 protein, has been immobilized onto the surface of the plastic wells. Any p53 present in the sample to be assayed will bind to the capture antibody. The biotinylated detector polyclonal antibody also recognizes p53 protein, and will bind to any p53, which has been retained by the capture antibody. The detector antibody, in turn, is bound by horseradish peroxidase-conjugated streptavidin. The horseradish peroxidase catalyses the conversion of the chromogenic substrate o-phenylene diamine, the intensity of which is proportional to the amount of p53 protein bound to the plate. The coloured reaction product is quantified using a spectrophotometer. Quantitation is achieved by the construction of a standard curve using known concentrations of purified recombinant HIS tagged p53 protein (see example C.1).
A2780 cells (ATCC) were cultivated in RPMI 1640 supplemented with 10% fetal calf serum (FCS), 2 mM L-glutamine and gentamycin at 37° C. in a humidified incubator with 5% CO2.
A2780 cells were seeded at 20.000 cells per well in a 96 well plate, cultured for 24 hours and treated with compound for 16 hours at 37° C. in a humidified incubator. After incubation, the cells were washed once with phosphate-buffered saline and 30 μl, per well, low salt RIPA buffer (20 mM tris, pH7.0, 0.5 mM EDTA, 1% Nonidet P40, 0.5% DOC, 0.05% SDS, 1 mM PMSF, 1 μg/ml aprotinin and 0.5 μ/ml leupeptin) was added. Plates were placed on ice for 30 minutes to complete the lysis. p53 protein was detected in de lysates by using the sandwich ELISA, described below.
High binding polystyrene EIA/RIA 96 well plates (Costar 9018) were coated with the capture antibody pAb1801 (Abcam ab28-100) at a concentration of 1 μg/ml in coating buffer (0.1 M NaHCO3 pH8.2), 50 μl per well. The antibody was allowed to adhere overnight at 4° C. Coated plates were washed once with phosphate-buffered saline (PBS)/0.05% Tween 20 and 300 μl of blocking buffer (PBS, 1% bovine serum albumins (BSA)) was added, for an incubation period of 2 hours at room temperature. Dilutions of purified recombinant HIS tagged p53 protein, ranging from 3-200 ng/ml, were made in blocking buffer and used as standards.
Plates were washed twice with PBS/0.05% Tween 20 and blocking buffer or standards were added at 80 μl/well. To the standards, 20 μl of lysis buffer was added. The samples were added to the other wells at 20 μl lysate/well. After an overnight incubation at 4° C., plates were washed twice with PBS/0.05% Tween 20. Aliquots of 100 μl secondary polyclonal antibody p53(FL-393) (Tebubio, sc-6243) at a concentration of 1 μg/ml in blocking buffer were added to each well and allowed to adhere for 2 hours at room temperature. Plates were washed three times with PBS/0.05% Tween 20. Detection antibody anti-rabbit HRP (sc-2004, Tebubio) at 0.04 μg/ml in PBS/1% BSA was added and incubated for 1 hour at room temperature. Plates were washed three times with PBS/0.05% Tween 20 and 100 μl of substrate buffer was added (substrate buffer was prepared shortly before use by adding 1 tablet of 10 mg o-phenylene diamine (OPD) from Sigma and 125 μl 3% H2O2 to 25 ml OPD buffer: 35 mM citric acid, 66 mM Na2HPO4, pH5.6). After 5 to 10 minutes, colour reaction was stopped by adding 50 μl stop buffer (1 M H2SO4) per well. The absorbance at dual wavelengths of 490/655 nm was measured using a Biorad micro plate reader and the results were then analyzed.
For each experiment, controls (containing no drug) and a blank incubation (containing no cells or drugs) were run in parallel. The blank value was subtracted from all control and sample values. For each sample, the value of p53 (in absorbance units) was expressed as the percentage of the value for p53 present in the control. […]
On the technique in general: An ELISA detects its analyte on a solid surface through an enzyme-linked reagent.

Turning to `O=C1COc2cc(Nc3ccncc3)ccc2N1CCc1c[nH]c2ccccc12` [Compound 4], the IC50 in assay [1] was greater than 10 µM. Also, the minimal effective concentration in assay [2] was greater than 10 µM.
On to `Cc1cccc2c(CCN3CCOc4cc(Nc5ccncc5)ccc43)c[nH]c12` [Compound 48], for which, in assay [1], the IC50 is 3.47 µM. In addition, the minimal effective concentration in assay [2] was greater than 10 µM.
Consider `CCC1(C)CN(CCc2c[nH]c3ccccc23)c2ccc(Nc3ccncc3)cc2O1` (centres unmarked) [Compound 54], for which the IC50 in assay [1] is 3.63 µM. Also, the minimal effective concentration in assay [2] is greater than 10 µM.
With `OC1CCc2c(Nc3ccc4c(c3)OC3(CCSCC3)CN4CCc3c[nH]c4ccccc34)ccnc21` (centres unmarked) [Compound 26], the IC50 in assay [1] was roughly 6.03 µM. The minimal effective concentration in assay [2] amounted to 0.03 µM.
On the same counts, the results for `Cc1cccc2c(CCN3CC4(CCCCC4)Oc4cc(Nc5ccncc5)ccc43)c[nH]c12` [Compound 59] are 2.45 µM and greater than 10 µM.
On the same counts, the results for `CC1(C)CN(CCc2c[nH]c3ccccc23)c2ccc(Nc3ccnc(CO)c3)cc2O1` [Compound 78] are 6.17 µM and greater than 10 µM.
Regarding `c1ccc2c(CCN3CC4(CCNCC4)Oc4cc(Nc5ccncc5)ccc43)c[nH]c2c1` [Compound 15], the IC50 in assay [1] is 8.32 µM. In addition, the minimal effective concentration in assay [2] was greater than 10 µM.
On the same counts, the results for `OCc1cc(Nc2ccc3c(c2)OCCN3CCc2coc3ccccc23)ccn1` [Compound 68] are 5.25 µM and greater than 10 µM.
On the same counts, the results for `CC1CN(CCc2c[nH]c3ccccc23)c2ccc(Nc3ccnc4c3CCC4O)cc2O1` (centres unmarked) [Compound 24] are 5.62 µM and 3 µM.
On the same counts, the results for `CN1CCN(CCc2c[nH]c3ccccc23)c2ccc(Nc3ccncc3)cc21` [Compound 76] are 3.31 µM and 10 µM.
Turning to `Cc1cccc2c(CCN3CC(C)Oc4cc(Nc5ccnc(CO)c5)ccc43)c[nH]c12` (centres unmarked) [Compound 37], in assay [1], the IC50 was 3.55 µM. Besides, the minimal effective concentration in assay [2] is greater than 10 µM.
For `OCc1cc(Nc2ccc3c(c2)OCCN3CCc2c[nH]c3ccccc23)ccn1` [Compound 22] the same measures were 2.29 µM and 1 µM.
For `CC1Oc2cc(Nc3ccncc3)ccc2N(CCc2c[nH]c3ccccc23)C1=O` (centres unmarked) [Compound 61] the same measures were greater than 10 µM and greater than 10 µM.
For `COc1cccc2c(CCN3CCOc4cc(Nc5ccnc(CO)c5)ccc43)c[nH]c12` [Compound 81] the same measures were 4.17 µM and greater than 10 µM.
With `CC(C)N1CCC2(CC1)CN(CCc1c[nH]c3ccccc13)c1ccc(Nc3ccnc4c3CCC4O)cc1O2` (centres unmarked) [Compound 33], the IC50 in assay [1] is 2.19 µM. Also, the minimal effective concentration in assay [2] is greater than 10 µM.
For `Cc1cccc2c(CCN3CCOc4cc(Nc5ccnc6c5CCC6O)ccc43)c[nH]c12` (centres unmarked) [Compound 14] the same measures were 2.88 µM and 3 µM.
On the same counts, the results for `OCc1cc(Nc2cc(F)c3c(c2)OCCN3CCc2c[nH]c3ccccc23)ccn1` [Compound 69] are greater than 10 µM and 10 µM.
For `OCc1cc(Nc2ccc3c(c2)OCCN3CCc2csc3ccccc23)ccn1` [Compound 67] the same measures were 5.01 µM and 10 µM.
As to `COc1cccc2c(CCN3CCOc4cc(Nc5ccnc6c5CCC6O)ccc43)c[nH]c12` (centres unmarked) [Compound 71], in assay [1], the IC50 is 5.25 µM. Further, the minimal effective concentration in assay [2] was greater than 10 µM.
On the same counts, the results for `OC1CCc2c(Nc3cc(F)c4c(c3)OCCN4CCc3c[nH]c4ccccc34)ccnc21` (centres unmarked) [Compound 13] are 4.47 µM and 1 µM.
With `OCc1cc(Nc2ccc3c(c2)OC2(CCCC2)CN3CCc2c[nH]c3ccccc23)ccn1` [Compound 40], the IC50 in assay [1] is roughly 4.79 µM. Further, the minimal effective concentration in assay [2] is greater than 10 µM.
On the same counts, the results for `OCc1cc(Nc2ccc3c(c2)OC2(CCNCC2)CN3CCc2c[nH]c3ccccc23)ccn1` [Compound 16] are greater than 10 µM and greater than 10 µM.
